These results are taken from patent US20090149482A1, “STEREOCHEMICALLY DEFINED DIPEPTIDE ESTERS OF ANTIVIRAL AGENTS FOR ENHANCED OCULAR TREATMENT” (priority 2001, published 2009).

Series [1] can be described thus: Plasma pharmacokinetics of stereoisomeric prodrugs following oral administration in rats.
The next series relates to Caco-2 cell suspension. The settings on record: for 10^2 × kobs: Caco-2 cell suspension at pH 7.4, * = no intact drug detected during the experiment.
A short description of the next series: in vitro. The following applies: human, Caco-2, pH 7.4.
The next series addresses T1, hPEPT1 (Homo sapiens, UniProt P46059).
T1 construct: endogenous in cells; host or cells: Caco-2 (human colon carcinoma, ATCC)
T1 sequence (P46059 1-708): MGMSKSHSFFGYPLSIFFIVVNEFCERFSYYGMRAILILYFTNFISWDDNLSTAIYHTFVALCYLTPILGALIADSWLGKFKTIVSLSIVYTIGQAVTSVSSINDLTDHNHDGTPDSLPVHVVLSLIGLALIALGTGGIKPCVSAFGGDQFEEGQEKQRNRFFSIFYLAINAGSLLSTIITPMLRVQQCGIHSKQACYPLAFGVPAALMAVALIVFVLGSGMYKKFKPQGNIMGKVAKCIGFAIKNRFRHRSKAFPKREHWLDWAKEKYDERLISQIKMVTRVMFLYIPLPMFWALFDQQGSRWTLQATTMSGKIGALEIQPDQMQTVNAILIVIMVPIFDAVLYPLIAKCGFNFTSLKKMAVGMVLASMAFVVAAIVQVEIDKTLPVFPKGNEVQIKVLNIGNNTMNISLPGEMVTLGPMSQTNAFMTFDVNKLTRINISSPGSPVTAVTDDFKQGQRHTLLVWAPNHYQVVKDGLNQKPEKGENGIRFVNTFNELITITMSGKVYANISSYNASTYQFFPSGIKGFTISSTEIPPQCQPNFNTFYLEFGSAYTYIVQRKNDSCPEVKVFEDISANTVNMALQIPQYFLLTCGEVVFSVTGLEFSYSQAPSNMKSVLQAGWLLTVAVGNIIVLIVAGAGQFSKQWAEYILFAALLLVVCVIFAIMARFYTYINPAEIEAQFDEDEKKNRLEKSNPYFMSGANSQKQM
The experiment in a line: [3H] Glycylsarcosine uptake and its inhibition in Caco-2 cells (affinity towards peptide transporter). The format is cell-based. The following applies: for Vmax of Gly-Sar uptake in presence of the drug: Gly-Sar with drug (10 mM); for Ki: read-out: Ki. The text has this: Materials: [^3H] Glycylsarcosine (Gly-Sar; 4 Ci/mmol) was purchased from Moravek Biochemicals (Brea, Calif.) and [^14C] Mannitol (50 mCi/mmol) was supplied by Amersham (Piscataway, N.J.). Human colon carcinoma derived Caco-2 cells were obtained from American Type Culture Collection (ATCC, Rockville, Md.). The growth medium, Dulbecco's modified Eagle Medium was obtained from Life Technologies (Grand Island, N.Y.). […] Fetal bovine serum (FBS) was purchased from JRH Biosciences (Lenexa, Kans.). Culture flasks (75 cm^2 growth area), polyester Transwells® (pore size 0.4 Cm with diameter 6.5 mm) and polyester membranes (pore size 0.4 Cm) were procured from Costar (Bedford, Mass.). The buffer components and solvents were obtained from Fisher Scientific (St. Louis, Mo.). All the di-peptide esters of acyclovir were custom synthesized in our laboratory. […] Cell Culture: All cultures were maintained in humidified incubator at 37° C. with a 5% carbon dioxide in air atmosphere. Caco-2 cells were obtained at passage 25 from American Type Culture Collection (ATCC) and grown in plastic tissue culture flasks. […] When 80% confluent, these cells were removed by treating them with Trypsin/EDTA and plated at a density of 100,000 cells/cm^2 on collagen coated plastic dishes containing clear polyester membranes (0.636 cm^2, […]) or 12-well tissue culture treated plastic plates. Cells were then grown in medium containing 10% FBS (heat-inactivated). […] [^14C] […] Metabolism studies in Cell Suspensions: Confluent Caco-2 cells, grown in tissue culture flasks were isolated with the aid of mechanical scraper and washed thrice with DPBS. […] One-hundred micro-liters of samples were withdrawn at predetermined time intervals and the sample was purified by precipitating the cellular proteins into the organic solvent mixture and stored at −80° C. until further analysis. The protein content of the cell suspension was determined by the method of Bradford using bovine serum albumin as the standard (BioRad protein estimation kit, Hercules, Calif.). […] Transport studies: Transport experiments were done using Side-Bi-Side™ diffusion cells (type VSC-1, Crown Glass Company Inc.) and Transwell® inserts. Prior to the experiment with Gly-Sar, Caco-2 cell monolayers grown on the clear polyester membranes and Transwell® inserts were washed with DPBS (pH 6.0) and incubated at 37° C. Freshly prepared drug solutions in DPBS (pH 6.0) was placed in the donor chamber and the receiver chamber was filled with DPBS. The volumes of donor and receptor chambers were 3 ml each for Side-Bi-Side™ diffusion cells and 0.5 ml and 1.5 ml respectively for Transwell® inserts. […] The samples were stored at −80° C. until analyzed HPLC. All experiments were performed at 37° C. […] The concentration dependent uptake of glycylsarcosine was studied using [^3H] […] For Dixon plots and Dose Response studies [^3H] […] Following incubation, the cell monolayers were washed three times with ice-cold HEPES buffer to terminate the uptake experiment. After the washings cells were lysed overnight using 1 ml 0.1% (w/v) Triton X-100 in 0.3 N NaOH at room temperature. Aliquots (500 μl) from each well were then transferred to scintillation vials containing 5 ml scintillation cocktail (Fisher Scientific, Fairlawn, N.J.). […] The amount of protein in the cell lysate was measured by the BioRad protein estimation kit using bovine serum albumin as standard (BioRad Protein estimation Kit, Hercules, Calif.). Analytical Procedures: All samples were assayed using HPLC. […] The column used was a C18 Luna column 4.6×250 mm (Phenomenex). The mobile phase consisted of a mixture of buffer and an organic modifier. The percentage of organic phase was varied in order to elute compounds of interest.
On the technique in general: Passage across Caco-2 layers is used to estimate intestinal permeability.

The subject of series [2] is rabbit corneal cell line (SIRC). The following applies: SIRC cells.
For series [3] the following is noted: for first order hydrolytic rate constant k: 37° C.
The next series has as its system HSV-1 strain McKrae. The series is described as follows: HSV-1 epithelial keratitis rabbit model, topical treatment, SLE scores. The format is in vivo. The text has this: The rabbit eye is an excellent model to study acute HSV-1 epithelial keratitis. Also, spontaneous and induced ocular HSV-1 shedding and corneal epithelial disease in rabbits has been used as a model of human ocular HSV-1 reactivation and recurrence. HSV-1 strain McKrae was used in studies for epithelial keratitis. HSV-1 strain RE was used for studies of HSV stromal keratitis.
i) Epithelial Keratitis: A group of ten rabbits was used to study each compound. Both eyes of all rabbits were used. An aqueous vehicle (like a placebo) and one positive control were obtained using 1% TFT (Viroptic®). Each compound at 1% concentration (TFT=33 mM, Gly-Gly-ACV=26.6 mM, Val-Val-ACV=18.6 mM) were applied (50 μl) topically 5 times per day every two hours starting at 8:00 a.m. and ending at 4:00 p.m. The treatment began on the 3rd post-inoculation day and continued for 5 consecutive days. Slit-lamp examinations were performed once every day for 8 days and thereafter once every other day until lesions resolved.

Where [4] appears, read: plasma analyte following oral administration of LDACV in rats.

Where two headings read alike, the source gives them in different places.

Take `CC(C)[C@@H](N)C(=O)OCCOCn1cnc2c(=O)[nH]c(N)nc21` [DACV]: in series [1] (setting [4]), the area under the curve (AUC) turned out to be 261.89 ± 23.64 µM·min, the Cmax turned out to be 8.68 ± 1.24 µM and the Tmax is 15 min.

`NCC(=O)NC(Cc1ccc(O)cc1)C(=O)OCCOCn1cnc2c(=O)[nH]c(N)nc21` (stereo not drawn) [Gly-Tyr-ACV]: in the series on Caco-2 cell suspension, the “10^2 × kobs” value is 3.21 ± 0.46 min^−1mg^−1 protein. The molecule further came in with a half-life at 0.2 mM in “in vitro” of 21.5 ± 3.2 min. At hPEPT1 (Lineweaver-Burk), the “Vmax of Gly-Sar uptake in presence of the drug” value came to 0.094 ± 0.11 µmol/min/mg. Also, the inhibition constant Ki on hPEPT1 (Lineweaver-Burk) was determined as 3.94 ± 0.61 mM; on hPEPT1 (Michaelis-Menten) it was 3.56 ± 1.98 mM.

Consider `NCC(=O)NCC(=O)OCCOCn1cnc2c(=O)[nH]c(N)nc21` [Gly-Gly-ACV], for which the percent survival in series [2] (0.25 mM) is recorded as 104.6%; in series [2] (0.5 mM) it was 94.7%; in series [2] (1 mM), 90.1%; in series [2] (2 mM), 86.2%; in series [2] (5 mM), 63.8%; in series [2] (10 mM), 49.32%. The “intact drug after incubation with the cell suspension” value in the series on Caco-2 cell suspension (Caco-2 cell suspension) is recorded as “no intact drug detected within one minute”. The “stability as an ophthalmic solution” value in series [3] (pH 5.6, concluded from rate constants) is on record as “stable for two years”. Besides, the “first order hydrolytic rate constant k” value in series [3] (pH 7.4) is 6.75 k × 10^3 min^−1; in series [3] (pH 9.0), 14.85 k × 10^3 min^−1. Moreover, the “efficacy relative to TFT (SLE scores)” value with HSV-1 strain McKrae was “more effective than TFT”. For the same molecule, the “Concentration required to achieve an SLE Score of 0.3” value with HSV-1 strain McKrae (14 days post-inoculation, 1% topical 5 times per day) turned out to be 26.6 mM.

With `Nc1nc2c(ncn2COCCOC(=O)CNC(=O)C(N)Cc2ccc(O)cc2)c(=O)[nH]1` (stereo not drawn) [Tyr-Gly-ACV], in the series with Caco-2 cell suspension, the “10^2 × kobs” value is on record as 5.22 ± 0.58 min^−1mg^−1 protein. For the same molecule, the half-life at 0.2 mM in “in vitro” turned out to be 13.3 ± 1.5 min. Moreover, at hPEPT1 (Lineweaver-Burk), the “Vmax of Gly-Sar uptake in presence of the drug” value came out at 0.087 ± 0.09 µmol/min/mg and the inhibition constant (Ki) came to 8.23 ± 0.43 mM. On hPEPT1 (Michaelis-Menten), the Ki was found to be 7.99 ± 0.54 mM.

As to `CC(C)C(N)C(=O)NC(C(=O)OCCOCn1cnc2c(=O)[nH]c(N)nc21)C(C)C` [DLACV, D-valine-L-valine-acyclovir], in series [1] (oral administration in rats), the “concentrations in the systemic circulation” value was “Very little concentrations were observed”.

By AUC is commonly meant the area under the concentration-time curve, a measure of exposure. The term Cmax denotes the maximum level reached in the sampled fluid or tissue. The Tmax is the time at which the peak concentration occurs. The term half-life denotes the time in which the quantity being followed falls by half. Low readings indicate fast loss, high ones slow loss. What is called Ki is a dissociation constant, usually derived from enzyme kinetics or from competition with a known ligand.
